Data: patent publication US6737383B1, “Herbicidal oxadiazolidines” (priority 1999, dated 2004)

Experiments:
[1] = tested on: bedstraw; assay: Test B pre/postemergence bedstraw; assay type: in vivo, Galium aparine
Outline: (§1)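 Response is a visual 0-to-10 score relative to untreated plants, where 0 means no effect and 10 means complete control, taken twelve to sixteen days after application. Treatments went onto soil at planting and onto foliage of 1- to 4-leaf plants, using a surfactant-containing non-phytotoxic solvent.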

[2] = tested on: blackgrass; assay: Test B pre/postemergence blackgrass; assay type: in vivo, Alopecurus myosuroides
Outline: as §1

[3] = tested on: surinam grass; assay: Test B pre/postemergence surinam grass; assay type: in vivo, Brachiaria decumbens; settings: for Plant response rating, B. signalgrass: Postemergence
Outline: as §1

[4] = tested on: cocklebur; assay: Test B pre/postemergence cocklebur; assay type: in vivo, Xanthium strumarium
Outline: as §1

[5] = tested on: corn; assay: Test B pre/postemergence corn; assay type: in vivo, Zea mays
Outline: as §1

[6] = tested on: crabgrass; assay: Test B pre/postemergence crabgrass; assay type: in vivo, Digitaria sanguinalis
Outline: as §1

[7] = tested on: giant foxtail; assay: Test B pre/postemergence giant foxtail; assay type: in vivo, Setaria faberii
Outline: as §1

[8] = tested on: morningglory; assay: Test B pre/postemergence morningglory; assay type: in vivo, Ipomoea hederacea
Outline: as §1

[9] = tested on: pigweed; assay: Test B pre/postemergence pigweed; assay type: in vivo, Amaranthus retroflexus
Outline: as §1

[10] = tested on: rape; assay: Test B pre/postemergence rape; assay type: in vivo, Brassica napus
Outline: as §1

[11] = tested on: soybean; assay: Test B pre/postemergence soybean; assay type: in vivo, Glycine max
Outline: as §1

[12] = tested on: sugar beet; assay: Test B pre/postemergence sugar beet; assay type: in vivo, Beta vulgaris
Outline: as §1

[13] = tested on: velvetleaf; assay: Test B pre/postemergence velvetleaf; assay type: in vivo, Abutilon theophrasti
Outline: as §1

[14] = tested on: wheat; assay: Test B pre/postemergence wheat; assay type: in vivo, Triticum aestivum
Outline: as §1

[15] = tested on: wild oat; assay: Test B pre/postemergence wild oat; assay type: in vivo, Avena fatua
Outline: as §1

[16] = tested on: purple nutsedge; assay: Test B pre/postemergence purple nutsedge; assay type: in vivo, Cyperus rotundus; settings: for Plant response rating, Nutsedge: Postemergence, scale of 0 to 10 where 0 is no effect and 10 is complete control
Outline: as §1

[17] = Preemergence, Rate 62 g/ha, scale 0 to 10 (0 no effect, 10 complete control)
[18] = Preemergence, Rate 125 g/ha, scale 0 to 10, 0 is no effect, 10 is complete control
[19] = Preemergence, Rate 500 g/ha, scale of 0 to 10 where 0 is no effect and 10 is complete control
[20] = Rate 250 g/ha, Postemergence, scale of 0 to 10 where 0 is no effect and 10 is complete control
[21] = Postemergence, Rate 62 g/ha, scale of 0 to 10, 0 is no effect, 10 is complete control
[22] = Postemergence, Rate 125 g/ha, scale 0 to 10, 0 is no effect, 10 is complete control
[23] = Postemergence, Rate 500 g/ha, scale of 0 to 10 where 0 is no effect and 10 is complete control

COCn1c(=O)on(C(=O)N(c2ccccc2)C(C)C)c1=O [Compound 562]
Bedstraw plant response rating [1, 17]: 0
Bedstraw plant response rating [1, 18]: 0
Bedstraw plant response rating (0 to 10 scale) ([1]; Preemergence, Rate 250 g/ha): 0
Bedstraw plant response rating [1, 19]: 0
Plant response rating, Bedstraw [1, 20]: 4
Blackgrass plant response rating [2, 21]: 3
Blackgrass plant response rating [2, 22]: 3
Plant response rating, Blackgrass [2, 23]: 3
Blackgrass plant response rating [2, 17]: 4
Blackgrass plant response rating [2, 18]: 10
Blackgrass plant response rating (0 to 10 scale) ([2]; Preemergence, Rate 250 g/ha): 10
Blackgrass plant response rating [2, 19]: 10
Plant response rating, Blackgrass [2, 20]: 3
Plant response rating, B. signalgrass ([3]; Rate 500 g/ha, scale of 0 to 10 where 0 is no effect and 10 is complete control): 7
B. signalgrass plant response rating [3, 17]: 5
B. signalgrass plant response rating [3, 18]: 8
B. signalgrass plant response rating (0 to 10 scale, 0 is no effect, 10 is complete control) ([3]; Preemergence, Rate 250 g/ha): 10
B. signalgrass plant response rating [3, 19]: 10
Plant response rating, B. signalgrass ([3]; Rate 250 g/ha, scale of 0 to 10 where 0 is no effect and 10 is complete control): 5
Cocklebur plant response rating [4, 21]: 2
Cocklebur plant response rating [4, 22]: 2
Plant response rating, Cocklebur [4, 23]: 2
Cocklebur plant response rating [4, 17]: 0
Cocklebur plant response rating [4, 18]: 0
Cocklebur plant response rating (0 to 10 scale) ([4]; Preemergence, Rate 250 g/ha): 0
Cocklebur plant response rating [4, 19]: 2
Plant response rating, Cocklebur [4, 20]: 2
Corn plant response rating [5, 21]: 0
Corn plant response rating [5, 22]: 3
Plant response rating, Corn [5, 23]: 7
Corn plant response rating [5, 17]: 0
Corn plant response rating [5, 18]: 3
Corn plant response rating (0 to 10 scale) ([5]; Preemergence, Rate 250 g/ha): 9
Corn plant response rating [5, 19]: 9
Plant response rating, Corn [5, 20]: 7
Crabgrass plant response rating [6, 21]: 7
Crabgrass plant response rating [6, 22]: 5
Plant response rating, Crabgrass [6, 23]: 10
Crabgrass plant response rating [6, 17]: 8
Crabgrass plant response rating [6, 18]: 8
Crabgrass plant response rating (0 to 10 scale) ([6]; Preemergence, Rate 250 g/ha): 10
Crabgrass plant response rating [6, 19]: 10
Plant response rating, Crabgrass [6, 20]: 7
Giant foxtail plant response rating [7, 21]: 7
Giant foxtail plant response rating [7, 22]: 7
Plant response rating, Giant foxtail [7, 23]: 8
Giant foxtail plant response rating [7, 17]: 4
Giant foxtail plant response rating [7, 18]: 9
Giant foxtail plant response rating (0 to 10 scale) ([7]; Preemergence, Rate 250 g/ha): 8
Giant foxtail plant response rating [7, 19]: 8
Plant response rating, Giant foxtail [7, 20]: 8
Morningglory plant response rating [8, 21]: 4
Morningglory plant response rating [8, 22]: 4
Plant response rating, Morningglory [8, 23]: 10
Morningglory plant response rating [8, 17]: 0
Morningglory plant response rating [8, 18]: 0
Morningglory plant response rating (0 to 10 scale) ([8]; Preemergence, Rate 250 g/ha): 0
Morningglory plant response rating [8, 19]: 8
Plant response rating, Morningglory [8, 20]: 10
Redroot pigweed plant response rating [9, 21]: 9
Plant response rating, Redroot pigweed [9, 23]: 9
Redroot pigweed plant response rating [9, 17]: 10
Redroot pigweed plant response rating [9, 18]: 10
Redroot pigweed plant response rating (0 to 10 scale) ([9]; Preemergence, Rate 250 g/ha): 10
Redroot pigweed plant response rating [9, 19]: 10
Plant response rating, Redroot pigweed [9, 20]: 9
Rape plant response rating [10, 21]: 0
Rape plant response rating [10, 22]: 0
Plant response rating, Rape [10, 23]: 7
Rape plant response rating [10, 17]: 0
Rape plant response rating [10, 18]: 6
Rape plant response rating (0 to 10 scale) ([10]; Preemergence, Rate 250 g/ha): 10
Rape plant response rating [10, 19]: 10
Plant response rating, Rape [10, 20]: 0
Soybean plant response rating [11, 21]: 3
Plant response rating, Soybean [11, 23]: 5
Soybean plant response rating [11, 17]: 0
Soybean plant response rating [11, 18]: 0
Soybean plant response rating (0 to 10 scale) ([11]; Preemergence, Rate 250 g/ha): 9
Soybean plant response rating [11, 19]: 9
Plant response rating, Soybean [11, 20]: 4
Sugarbeets plant response rating [12, 21]: 3
Plant response rating, Sugarbeets [12, 23]: 5
Sugarbeets plant response rating [12, 17]: 6
Sugarbeets plant response rating [12, 18]: 8
Sugarbeets plant response rating (0 to 10 scale) ([12]; Preemergence, Rate 250 g/ha): 9
Sugarbeets plant response rating [12, 19]: 9
Plant response rating, Sugarbeets [12, 20]: 3
Velvetleaf plant response rating [13, 21]: 3
Plant response rating, Velvetleaf [13, 23]: 6
Velvetleaf plant response rating [13, 17]: 0
Velvetleaf plant response rating [13, 18]: 0
Velvetleaf plant response rating (0 to 10 scale) ([13]; Preemergence, Rate 250 g/ha): 0
Velvetleaf plant response rating [13, 19]: 7
Plant response rating, Velvetleaf [13, 20]: 6
Wheat plant response rating [14, 21]: 0
Plant response rating, Wheat [14, 23]: 5
Wheat plant response rating [14, 17]: 3
Wheat plant response rating [14, 18]: 9
Wheat plant response rating (0 to 10 scale) ([14]; Preemergence, Rate 250 g/ha): 9
Wheat plant response rating [14, 19]: 9
Plant response rating, Wheat [14, 20]: 7
Wild oats plant response rating [15, 21]: 0
Plant response rating, Wild oats [15, 23]: 4
Wild oats plant response rating [15, 17]: 4
Wild oats plant response rating [15, 18]: 9
Wild oats plant response rating (0 to 10 scale) ([15]; Preemergence, Rate 250 g/ha): 10
Wild oats plant response rating [15, 19]: 10
Plant response rating, Wild oats [15, 20]: 0
Plant response rating, Nutsedge ([16]; Rate 500 g/ha): 5
Nutsedge plant response rating [16, 17]: 0
Nutsedge plant response rating [16, 18]: 0
Nutsedge plant response rating (0 to 10 scale) ([16]; Preemergence, Rate 250 g/ha): 0
Plant response rating, Nutsedge ([16]; Rate 250 g/ha): 5
